According to patent US10183943B2, “Heterocyclic compounds and their use in preventing or treating bacterial infections” (MUTABILIS, priority 2015, dated 2019):

Assays:
[1] = biological target: T1, TEM-1 (Escherichia coli, UniProt P62593); test: β-lactamase inhibitory activity, determination of IC50 (nitrocefin hydrolysis); assay type: biochemical
T1 construct: made in house; host or cells: E. coli

[2] = biological target: T2, OXA-11 (Pseudomonas aeruginosa, UniProt Q06778); test: as above; assay type: biochemical
T2 construct: made in house; host or cells: E. coli
T2 sequence (Q06778 21-266): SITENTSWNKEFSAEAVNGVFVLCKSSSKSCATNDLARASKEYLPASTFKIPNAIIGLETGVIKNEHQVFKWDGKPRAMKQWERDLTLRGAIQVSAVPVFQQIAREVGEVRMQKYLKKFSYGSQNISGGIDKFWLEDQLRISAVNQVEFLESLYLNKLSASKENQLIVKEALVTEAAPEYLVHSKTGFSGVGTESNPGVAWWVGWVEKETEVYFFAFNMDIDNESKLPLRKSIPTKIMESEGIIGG

[3] = biological target: T3, KPC-2 (Klebsiella pneumoniae, UniProt Q9F663); test: as above; assay type: biochemical
T3 construct: made in house; host or cells: E. coli
T3 sequence (Q9F663 25-293 limits assumed): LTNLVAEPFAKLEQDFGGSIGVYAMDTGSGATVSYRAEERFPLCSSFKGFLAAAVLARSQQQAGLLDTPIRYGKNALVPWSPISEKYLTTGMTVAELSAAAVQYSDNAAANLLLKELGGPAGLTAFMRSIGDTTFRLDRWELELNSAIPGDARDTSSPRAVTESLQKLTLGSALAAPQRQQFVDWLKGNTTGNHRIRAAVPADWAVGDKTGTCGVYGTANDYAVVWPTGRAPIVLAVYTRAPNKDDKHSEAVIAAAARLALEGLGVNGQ

[4] = biological target: T4, OXA-15 (Pseudomonas aeruginosa, UniProt Q51574); test: biochemical
T4 construct: made in house; host or cells: E. coli
T4 sequence (Q51574 22-275): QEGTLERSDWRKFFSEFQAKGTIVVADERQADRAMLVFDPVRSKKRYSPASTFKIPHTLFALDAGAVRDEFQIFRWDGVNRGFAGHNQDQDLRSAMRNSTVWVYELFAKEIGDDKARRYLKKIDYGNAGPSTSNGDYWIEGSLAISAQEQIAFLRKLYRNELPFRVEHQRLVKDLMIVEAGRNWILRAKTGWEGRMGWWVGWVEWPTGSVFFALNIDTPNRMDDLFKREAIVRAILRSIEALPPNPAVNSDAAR

[5] = test system: K. pneumoniae UFR24 (TEM-1, SHV-2, SHV-11, OXA-1, OXA-48, OXA-47); test: MIC of compounds alone, broth microdilution; assay type: cell-based; settings: Klebsiella pneumoniae, read-out: MIC compounds of the invention alone
How it was run: (§1)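 MICs of compounds without ceftazidime were measured by CLSI broth microdilution in cation-adjusted Mueller-Hinton broth. Growth was checked by eye after 16-20 h at 35° C.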

[6] = test system: E. coli UFR32 (TEM-1, VEB-1, OXA-10); test: MIC of compounds alone, broth microdilution; assay type: cell-based; settings: Escherichia coli, read-out: MIC compounds of the invention alone
How it was run: as §1

[7] = test system: K. pneumoniae UFR39 (CTX-M-15, NDM-1); test: MIC of compounds alone, broth microdilution; assay type: cell-based; settings: Klebsiella pneumoniae, read-out: MIC compounds of the invention alone
How it was run: as §1

[8] = test system: E. coli UFR74 (SHV-1, DHA-1); test: MIC of compounds alone, broth microdilution; assay type: cell-based; settings: Escherichia coli, read-out: MIC compounds of the invention alone
How it was run: as §1

[9] = test system: K. pneumoniae UFR68 (TEM-1, SHV-11, CTX-M-15, KPC-3); test: MIC of compounds alone, broth microdilution; assay type: cell-based; settings: Klebsiella pneumoniae, read-out: MIC compounds of the invention alone
How it was run: as §1

[10] = test system: E. coli RGN238 (OXA-1); test: MIC of compounds alone, broth microdilution; assay type: cell-based; settings: Escherichia coli, read-out: MIC compounds of the invention alone
How it was run: as §1

[11] = test system: P. aeruginosa CIP107051 (TEM-24); test: MIC of compounds alone, broth microdilution; assay type: cell-based; settings: Pseudomonas aeruginosa, CIP107051, read-out: MIC compounds of the invention alone
How it was run: as §1

[12] = test system: K. pneumoniae BAA-1898 (TEM-1, SHV-11, SHV-12, KPC-2); test: MIC of compounds alone, broth microdilution; assay type: cell-based; settings: Klebsiella pneumoniae, BAA1898, read-out: MIC compounds of the invention alone
How it was run: as §1

[13] = test system: E. cloacae UFR70 (TEM-1, CTX-M-15, CMY-2, OXA-1, Porin loss); test: MIC of compounds alone, broth microdilution; assay type: cell-based; settings: Enterobacter cloacae, read-out: MIC compounds of the invention alone
How it was run: as §1

[14] = test system: K. oxytoca UFR21 (TEM-1, CTX-M-15, OXA-48); test: MIC of compounds alone, broth microdilution; assay type: cell-based; settings: Klebsiella oxytoca, read-out: MIC compounds of the invention alone
How it was run: as §1

[15] = test system: E. coli UFR61O (TEM-1, KPC-2); test: MIC of compounds alone, broth microdilution; assay type: cell-based; settings: Escherichia coli, read-out: MIC compounds of the invention alone
How it was run: as §1

[16] = test system: E. cloacae UFR85 (TEM-1, CTX-M-15, AmpC); test: MIC of compounds alone, broth microdilution; assay type: cell-based; settings: Enterobacter cloacae, read-out: MIC compounds of the invention alone
How it was run: as §1

[17] = test system: E. coli UFR18 (CTX-M-15, OXA-204); test: MIC of compounds alone, broth microdilution; assay type: cell-based; settings: Escherichia coli, read-out: MIC compounds of the invention alone
How it was run: as §1

[18] = test system: E. cloacae UFR51 (SHV-12, IMP-8); test: MIC of compounds alone, broth microdilution; assay type: cell-based; settings: Enterobacter cloacae, read-out: MIC compounds of the invention alone
How it was run: as §1

[19] = test system: E. coli 190317 (TEM-1, SHV-12, CTX-M-15, OXA-1); test: MIC of compounds alone, broth microdilution; assay type: cell-based; settings: Escherichia coli, read-out: MIC compounds of the invention alone
How it was run: as §1

[20] = test system: K. pneumoniae 6299 (TEM-1, SHV-11, OXA-163); test: MIC of compounds alone, broth microdilution; assay type: cell-based; settings: Klebsiella pneumoniae, read-out: MIC compounds of the invention alone
How it was run: as §1

[21] = test system: E. coli UFR41 (TEM-1, CTX-M-15, CMY-2, OXA-1, NDM-4); test: MIC of compounds alone, broth microdilution; assay type: cell-based; settings: Escherichia coli, read-out: MIC compounds of the invention alone
How it was run: as §1

[22] = test system: E. cloacae P99 (AmpC); test: MIC of compounds alone, broth microdilution; assay type: cell-based; settings: Enterobacter cloacae, read-out: MIC compounds of the invention alone
How it was run: as §1

[23] = test system: K. pneumoniae 200047 (TEM-1, SHV-32, CTX-M-15, OXA-1); test: MIC of compounds alone, broth microdilution; assay type: cell-based; settings: Klebsiella pneumoniae, read-out: MIC compounds of the invention alone
How it was run: as §1

[24] = test system: K. pneumoniae 160143 (TEM-1, SHV-1, CTX-M-15, KPC-2, OXA-1); test: MIC of compounds alone, broth microdilution; assay type: cell-based; settings: Klebsiella pneumoniae, read-out: MIC compounds of the invention alone
How it was run: as §1

[25] = test system: E. coli 131119 (TEM-1, OXA-48); test: MIC of compounds alone, broth microdilution; assay type: cell-based; settings: Escherichia coli, read-out: MIC compounds of the invention alone
How it was run: as §1

[26] = test system: K. pneumoniae UFR77 (CMY-2); test: MIC of compounds alone, broth microdilution; assay type: cell-based; settings: Klebsiella pneumoniae, read-out: MIC compounds of the invention alone
How it was run: as §1

[27] = test system: E. cloacae 260508 (TEM-1, CTX-M-15); test: MIC of compounds alone, broth microdilution; assay type: cell-based; settings: Enterobacter cloacae, read-out: MIC compounds of the invention alone
How it was run: as §1

[28] = biological target: T5, SHV-1 (Klebsiella pneumoniae, UniProt P0AD64); test: β-lactamase inhibitory activity, determination of IC50 (nitrocefin hydrolysis); assay type: biochemical
T5 construct: made in house; host or cells: E. coli
T5 sequence (P0AD64 22-286): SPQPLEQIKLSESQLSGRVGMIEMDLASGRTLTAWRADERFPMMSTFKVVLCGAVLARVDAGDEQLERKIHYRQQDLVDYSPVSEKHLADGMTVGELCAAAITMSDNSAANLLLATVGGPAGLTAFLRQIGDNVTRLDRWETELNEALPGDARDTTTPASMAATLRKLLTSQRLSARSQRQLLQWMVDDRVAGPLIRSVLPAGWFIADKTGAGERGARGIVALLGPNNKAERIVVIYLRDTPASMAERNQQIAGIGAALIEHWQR

[29] = biological target: T6, OXA-48 (Klebsiella pneumoniae, UniProt Q6XEC0); test: as above; assay type: biochemical
T6 construct: made in house; host or cells: E. coli
T6 sequence (Q6XEC0 23-265 limits assumed): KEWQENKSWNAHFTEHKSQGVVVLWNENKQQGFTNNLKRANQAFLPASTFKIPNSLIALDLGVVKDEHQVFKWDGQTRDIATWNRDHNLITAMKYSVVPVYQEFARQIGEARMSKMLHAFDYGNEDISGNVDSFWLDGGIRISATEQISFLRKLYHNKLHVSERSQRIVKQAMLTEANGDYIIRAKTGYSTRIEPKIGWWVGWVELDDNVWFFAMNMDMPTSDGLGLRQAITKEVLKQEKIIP

[30] = biological target: AmpC (P99) (Enterobacter cloacae, UniProt P05364); test: as above
Chain of AmpC (P99) (P05364 21-381): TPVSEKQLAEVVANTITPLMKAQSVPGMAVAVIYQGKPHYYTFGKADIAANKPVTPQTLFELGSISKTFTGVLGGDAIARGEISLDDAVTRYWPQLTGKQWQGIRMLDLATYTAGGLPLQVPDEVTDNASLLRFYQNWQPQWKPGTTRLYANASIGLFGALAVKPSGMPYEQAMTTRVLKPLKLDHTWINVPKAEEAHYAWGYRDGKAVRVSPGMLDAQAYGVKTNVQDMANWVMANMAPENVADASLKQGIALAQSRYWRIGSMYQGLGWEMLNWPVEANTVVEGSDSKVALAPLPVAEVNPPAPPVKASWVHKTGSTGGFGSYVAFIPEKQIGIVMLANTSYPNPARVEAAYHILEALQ

[31] = biological target: T7, CTX-M-15 (Escherichia coli, UniProt Q9EXV5); test: as above; assay type: biochemical
T7 construct: made in house; host or cells: E. coli
T7 sequence (Q9EXV5 entry or part of it): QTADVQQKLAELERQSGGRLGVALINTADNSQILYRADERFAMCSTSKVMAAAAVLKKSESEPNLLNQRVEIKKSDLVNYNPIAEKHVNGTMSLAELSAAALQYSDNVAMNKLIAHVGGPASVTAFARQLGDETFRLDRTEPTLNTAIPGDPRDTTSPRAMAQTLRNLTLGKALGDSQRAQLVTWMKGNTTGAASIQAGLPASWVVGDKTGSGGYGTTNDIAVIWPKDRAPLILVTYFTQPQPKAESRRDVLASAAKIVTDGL

[32] = biological target: AmpC P. aeruginosa (Pseudomonas aeruginosa, UniProt P24735); test: as above
Chain of AmpC P. aeruginosa (P24735 27-397): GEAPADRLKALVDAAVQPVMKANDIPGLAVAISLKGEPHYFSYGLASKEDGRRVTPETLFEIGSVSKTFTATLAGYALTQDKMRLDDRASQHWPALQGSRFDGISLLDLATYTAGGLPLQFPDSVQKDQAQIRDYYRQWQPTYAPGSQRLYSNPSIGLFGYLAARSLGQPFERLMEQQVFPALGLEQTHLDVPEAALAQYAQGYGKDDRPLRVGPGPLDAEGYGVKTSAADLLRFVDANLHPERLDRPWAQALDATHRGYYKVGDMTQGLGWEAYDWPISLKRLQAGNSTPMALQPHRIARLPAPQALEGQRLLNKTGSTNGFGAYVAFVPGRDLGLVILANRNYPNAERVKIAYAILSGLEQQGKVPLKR

[33] = biological target: T8, OXA-1 (Escherichia coli, UniProt P13661); test: as above; assay type: biochemical
T8 construct: made in house; host or cells: E. coli
T8 sequence (P13661 26-276): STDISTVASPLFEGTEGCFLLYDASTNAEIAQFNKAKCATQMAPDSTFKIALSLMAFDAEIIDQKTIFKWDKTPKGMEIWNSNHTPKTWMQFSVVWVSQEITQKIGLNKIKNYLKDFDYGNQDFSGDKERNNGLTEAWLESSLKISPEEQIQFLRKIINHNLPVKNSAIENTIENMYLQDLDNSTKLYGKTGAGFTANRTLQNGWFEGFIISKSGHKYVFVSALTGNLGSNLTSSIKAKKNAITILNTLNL

T1 sequence (P62593 24-286 limits assumed): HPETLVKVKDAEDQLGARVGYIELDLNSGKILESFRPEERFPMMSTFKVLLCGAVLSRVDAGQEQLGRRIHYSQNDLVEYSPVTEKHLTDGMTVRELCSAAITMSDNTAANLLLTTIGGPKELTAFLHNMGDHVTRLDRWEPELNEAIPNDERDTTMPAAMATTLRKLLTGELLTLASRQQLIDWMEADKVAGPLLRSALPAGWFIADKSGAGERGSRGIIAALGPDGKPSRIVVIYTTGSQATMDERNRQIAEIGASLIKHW

## O=C1N2CC=C(c3cnoc3)C(C2)N1OC(F)(F)C(=O)[O-].[Li+] (stereo not drawn) [Example 6, Lithium difluoro-(4-isoxazol-4-yl-7-oxo-1,6-diaza-bicyclo[3.2.1]oct-3-en-6-yloxy)-acetate]
[1]
  IC50: 7.3 nM
[2]
  IC50: 180 nM
[3]
  IC50: 460 nM
[4]
  IC50: 28 nM
[5]
  MIC: > 32 µg/mL
[6]
  MIC: 2 µg/mL
[7]
  MIC: 4 µg/mL
[8]
  MIC: > 32 µg/mL
[9]
  MIC: > 32 µg/mL
[10]
  MIC: 16 µg/mL
[11]
  MIC: > 32 µg/mL
[12]
  MIC: > 32 µg/mL
[13]
  MIC: 16 µg/mL
[14]
  MIC: > 32 µg/mL
[15]
  MIC: 8 µg/mL
[16]
  MIC: > 32 µg/mL
[17]
  MIC: 2 µg/mL
[18]
  MIC: 2 µg/mL
[19]
  MIC: 2 µg/mL
[20]
  MIC: > 32 µg/mL
[21]
  MIC: > 32 µg/mL
[22]
  MIC: 4 µg/mL
[23]
  MIC: 32 µg/mL
[24]
  MIC: > 32 µg/mL
[25]
  MIC: 4 µg/mL
[26]
  MIC: > 32 µg/mL
[27]
  MIC: 4 µg/mL
[28]
  IC50: 18 nM
[29]
  IC50: 3.7 nM
[30]
  IC50: 1800 nM
[31]
  IC50: 1.7 nM
[32]
  IC50: 4200 nM
[33]
  IC50: 1700 nM
